What was measured:
Water dispersibility = format: physicochemical; conditions: distilled water, sonication
Experimental: About 2 mg of the examined substance was dispersed in 40 mL of distilled water and the suspension was sonicated for 2 min. The addition of water was continued with 10 mL portions, after each portion the mixture was sonicated for 2 min. This process was continued till a homogenous solution was observed by naked eye. Then, the solution was let to stand for an hour to inspect any precipitate formation, but no changes occurred in any of the cases.

[1] = TEAC assay using ABTS radical; conditions: 6 min, ratio of slopes to trolox (melatonin dissolved in EtOH); for TEAC from DMSO: stock in DMSO diluted with PBS pH 7.4, 37 °C; for TEAC from THF: stock in THF diluted with PBS pH 7.4, 37 °C
Experimental: This method uses a redox reaction between ABTS^•+ radical cation and the examined antioxidants, which act as the reducing agents. […] As the carotenoids and the conjugates are poorly soluble in water, they were dissolved first either in small amounts of freshly distilled tetrahydrofuran (THF) or in dimethylsulfoxide (DMSO), and these stock solutions were diluted with phosphate-buffered saline (PBS) to the final nominal concentration.
The TEAC values were determined in isotonic phosphate buffer of pH 7.4. The buffer solution was made by dissolving 9.55 g of DPBS powder in distilled water to form 1L of solution (composition: 0.138 M NaCl, 0.0027 M KCl, 0.0081 M Na2HPO4, 0.0015 M KH2PO4). The assay was performed according to a literature process with slight modifications. The ABTS^•+ radical cation was produced by reacting 7 mM 2,2′-azino-bis(3-ethylbenzothiazoline-6-sulfonic acid) and 2.45 mM potassium persulfate in water. The stock ABTS^•+ solution was prepared 12–16 h before the experiments, and stored at room temperature in dark. The absorbance of the ABTS^•+ solution was set to 0.70 ± 0.05 at 734 nm by a ca. 100-fold dilution with phosphate-buffered saline (PBS). […] The stock solutions were diluted with PBS such that equal amounts of the diluted solutions were added to the ABTS^•+ reagent to obtain final antioxidants concentrations of 0.3125, 0.625, 1.25, 2.50, 3.75, 5 μM, respectively. In the blank (0 μM), the solutions of the antioxidants were substituted with THF or DMSO.
The antioxidants were incubated with ABTS^•+ solution at 37 °C for 6 min. During the reaction of ABTS^•+ with the antioxidants the absorbance of the solution decreases. The percentage inhibition of absorbance at 734 nm was calculated as (A0 − Aantioxidant)/A0, where A0 is the absorbance of the ABTS^•+ solution and Aantioxidant is the absorbance measured after the addition of the antioxidant. The determinations were carried out at each concentration in triplicate. The calculated values were plotted against the final concentration of the antioxidants. The slopes of the curves were compared with that for trolox, the TEAC value is the ratio of the slopes for the antioxidant and for trolox.

[2] = FRAP assay for the antioxidant capacity; parameters: key to FRAP: slope of concentration-absorbance line divided by Trolox slope; conditions: stock in THF, acetate buffer pH 3.0, 37 °C, 15 min; ratio of slopes to trolox (melatonin in EtOH)
Experimental: In the FRAP method the antioxidant reduces Fe^3+ to Fe^2+ in an acidic medium. These experiments were performed in an acetate buffer of pH 3.0, the stock solutions of the examined antioxidants were prepared in THF. The antioxidant capacities were compared to that of Trolox as a standard, just like in the ABTS assays.
A modified literature process was used. The FRAP reagent should also be prepared freshly each day. 2,4,6-Tris(2-pyridyl)-s-triazin (TPTZ) was dissolved in a 200 mM HCl solution and diluted with water to get a final 40 mM HCl and 10 mM TPTZ concentration. For the preparation of the FRAP reagent 30 mL of 20 mM FeCl3 solution and 30 mL of 10 mM TPTZ solution were mixed, and 300 mL of 300 mM acetate buffer with pH 3.0 was added (a pH lower than usual was used to avoid the precipitation of the TPTZ). The FRAP reagent was incubated at 37 °C for 15 min. 150 μL of antioxidant dissolved in THF was mixed with 2.85 mL FRAP reagent solution, and incubated at 37 °C for 15 min in dark. Measurements were carried out at each antioxidant concentration (0, 7.5; 10; 12.5; 15; 17.5 μM final concentration) in triplicate. In the 0 μM solution the antioxidant solution was substituted with acetate buffer (pH 3.0). The FRAP was determined at 600 nm: the absorbance values were plotted as a function of concentration of the sample compounds and that of Trolox for the standard reference data. The FRAP values were calculated as in the ABTS assays, i.e., the slope of the concentration-absorbance lines for the carotenoid derivatives was divided by that for the trolox.

[3] = Hydrodynamic diameter and colloidal stability of aggregates by dynamic light scattering; format: physicochemical; conditions: for mean size (hydrodynamic diameter) / zeta potential: 37 °C; for PDI: sd^2/mean size^2
Experimental: In contrary, all spectra gave a hypsochromic shift and loss of fine-structure when the DMSO solutions were diluted with PBS, which refers to the formation of H-type (card-pack) aggregates (Figures S1–S12). Since DMSO-containing aqueous systems are more suitable for biological studies, we examined these solution by dynamic light scattering (DLS) spectroscopy to gain more information about the particles. The concentrations of the examined solutions were the same as used in the ABTS/TEAC measurements (0.3125–5.00 μM, see next section).
Size determination of aggregates and the colloidal stability of the sample dispersions were determined by dynamic light scattering measurements, where the hydrodynamic diameter of particles, and zeta potential values were collected. The number-weighted size distribution indicated one main peak in each case, the polydispersity index (PDI) was calculated as sd^2/mean size^2. For the particle size analysis Malvern Zetasizer Nano S instrument and for the zeta potential determination Malvern Zetasizer Nano Z instrument were used (Malvern Panalytical Ltd., Great Malvern, Worcestershire, UK). The measurements were carried out in autocorrelation mode, and the following parameters were kept constant: scattering angle 173°, attenuator 11 and its factor 0.0146, measurement position 4.65 mm. The concentrations of sample dispersions were between 0.3125 and 5 µM. The dispersion medium was PBS. Each samples was examined after 6 min incubation period at 37 °C.

[4] = Study of aggregation by UV-Vis spectrophotometry; format: physicochemical; conditions: for change of UV spectrum with increasing ratio of PBS: starting from THF solutions; for type of aggregates formed: from THF:aqueous solutions
Source text: It has been known for a long while that carotenoids or their derivatives can be prone to supramolecular organization in water or water-organic solvent mixtures. This behaviour is especially interesting because this higher organization can modulate or alter biological properties of carotenoids, as well [40]. A tendency to form supramolecular structures can be tested by recording the UV spectra in an organic solvent and increasing the ratio of water in the sample. […] We have some recent experience of such behaviour of carotenoid-flavonoid conjugates.
All of our adducts were tested with the method above using tetrahydrofurane (THF) or dimethylsulfoxide (DMSO) with increasing ratio of phosphate-buffered saline (PBS), which was the medium of the antioxidant measurements. […]
1. Study of Aggregation by UV-Vis Spectrophotometry
Starting from THF solutions: each conjugate was dissolved in freshly distilled THF and the solutions were diluted
either with THF or THF-PBS mixtures to obain final solutions of identical carotenoid concentration. […]
Figure S1. UV-spectra of 8’-apo-β-carotenol succinate ( 6) ( a) in THF and in THF-PBS mixtures ( 1:1 , 1:3); (b) in DMSO
Figure S2. UV-spectra of zeaxanthin bissuccinate ( 7) ( a) in THF and in THF-PBS mixtures ( 1:1 , 1:3); (b) in DMSO and
Figure S3. UV-spectra of zeaxanthin monosuccinate ( 11) ( a) in THF and in THF-PBS mixtures ( 1:1 , 1:3); (b) in DMSO […]

[5] = 0.3125 μM in PBS from DMSO stock
[6] = 0.625 μM in PBS from DMSO stock

Water Dispersibility (Water dispersibility) | mean size (hydrodynamic diameter) [3, 5] [nm] | zeta potential [3, 5] [mV] | PDI ([3]; 0.3125 μM in PBS) | mean size (hydrodynamic diameter) [3, 6] [nm] | zeta potential [3, 6] [mV] | PDI ([3]; 0.625 μM in PBS) | mean size (hydrodynamic diameter) ([3]; 1.25 μM in PBS from DMSO stock) [nm] | zeta potential ([3]; 1.25 μM in PBS from DMSO stock) [mV] | PDI ([3]; 1.25 μM in PBS) | zeta potential ([3]; 2.5 μM in PBS from DMSO stock) [mV] | zeta potential ([3]; 3.75 μM in PBS from DMSO stock) [mV] | mean size (hydrodynamic diameter) ([3]; 5 μM in PBS from DMSO stock) [nm] | zeta potential ([3]; 5 μM in PBS from DMSO stock) [mV] | PDI ([3]; 5 μM in PBS) | change of UV spectrum with increasing ratio of PBS [4] | mean size (hydrodynamic diameter) ([3]; 2.5 μM in PBS from DMSO stock) [nm] | SMILES | TEAC from DMSO [1] | TEAC from THF [1] | FRAP [2] | also measured
less than 0.6 mg/100 mL | 241.5 | 22.6 | 0.0186 | 10.71 | 20.1 | 0.0159 | 28.78 | 31.0 | 0.0354 | 51.3 | 2.7 | 19.31 | 0.0 | 0.0298 | did not cause much change |  | CC1=C(/C=C/C(C)=C/C=C/C(C)=C/C=C/C=C(C)/C=C/C=C(C)/C=C/C(=O)[C@]2(C)C[C@@H](OC(=O)CCC(=O)O)CC2(C)C)C(C)(C)C[C@H](OC(=O)CCC(=O)O)C1 [Compound 9, Capsanthin bissuccinate] | 1.66 | 2.297 | 0.189 | 
less than 0.3 mg/100 mL | 30.98 | 51.7 | 0.0256 | 277.80 | 123.0 | 0.0264 | 25.09 | 80.5 | 0.0310 | 80.6 | 77.3 | 150.00 | −23.5 | 0.0297 | bathochromic shift | 32.93 | CC1=C(/C=C/C(C)=C/C=C/C(C)=C/C=C/C=C(C)/C=C/C=C(C)/C=C/C2=C(C)C[C@@H](OC(=O)CCC(=O)O)CC2(C)C)C(C)(C)C[C@H](O)C1 [Compound 11, Zeaxanthin monossuccinate] | 0.81 | 1.056 | 0.145 | PDI ([3]; 2.5 μM in PBS): 0.0420; mean size (hydrodynamic diameter) ([3]; 3.75 μM in PBS from DMSO stock): 17.71 nm; PDI ([3]; 3.75 μM in PBS): 0.1357; type of aggregates formed [4]: J-type (head-to-tail) aggregates
1.5 mg/100 mL | 453.5 | 103.0 | 0.0235 | 215.4 | 44.4 | 0.0320 | 263.3 | 89.6 | 0.0608 | 0.0 | 0.0 | 29.2 | 20.3 | 0.0249 | did not cause much change | 123.1 | CC1=C[C@H](OC(=O)CCC(=O)O)CC(C)(C)[C@H]1/C=C/C(C)=C/C=C/C(C)=C/C=C/C=C(C)/C=C/C=C(C)/C=C/C1=C(C)C[C@@H](OC(=O)CCC(=O)O)CC1(C)C [Compound 10, Lutein bissuccinate] | 1.49 | 2.356 | 0.184 | PDI ([3]; 2.5 μM in PBS): 0.0108; mean size (hydrodynamic diameter) ([3]; 3.75 μM in PBS from DMSO stock): 143.8 nm; PDI ([3]; 3.75 μM in PBS): 0.0121

SMILES | Water Dispersibility (Water dispersibility) | mean size (hydrodynamic diameter) [3, 5] [nm] | zeta potential [3, 5] [mV] | PDI ([3]; 0.3125 μM in PBS) | mean size (hydrodynamic diameter) [3, 6] [nm] | zeta potential [3, 6] [mV] | PDI ([3]; 0.625 μM in PBS) | mean size (hydrodynamic diameter) ([3]; 1.25 μM in PBS from DMSO stock) [nm] | zeta potential ([3]; 1.25 μM in PBS from DMSO stock) [mV] | PDI ([3]; 1.25 μM in PBS) | zeta potential ([3]; 2.5 μM in PBS from DMSO stock) [mV] | zeta potential ([3]; 3.75 μM in PBS from DMSO stock) [mV] | mean size (hydrodynamic diameter) ([3]; 5 μM in PBS from DMSO stock) [nm] | zeta potential ([3]; 5 μM in PBS from DMSO stock) [mV] | PDI ([3]; 5 μM in PBS) | change of UV spectrum with increasing ratio of PBS [4] | mean size (hydrodynamic diameter) ([3]; 2.5 μM in PBS from DMSO stock) [nm] | TEAC from DMSO [1] | TEAC from THF [1] | FRAP [2] | also measured
COc1ccc2[nH]cc(CCNC(=O)CNC(=O)CCC(=O)O[C@@H]3CC(C)=C(/C=C/C(C)=C/C=C/C(C)=C/C=C/C=C(C)/C=C/C=C(C)/C=C/C(=O)[C@]4(C)C[C@@H](OC(=O)CCC(=O)NCC(=O)NCCc5c[nH]c6ccc(OC)cc56)CC4(C)C)C(C)(C)C3)c2c1 [Compound 17, Capsanthin-dimelatonin conjugate] |  | 24.42 | −31.0 | 0.0408 | 43.47 | −22.9 | 0.1239 | 101.60 | −21.1 | 0.1362 | −22.2 | −27.5 | 236.60 | −27.0 | 0.1273 | bathochromic shift | 226.30 | 2.53 | 1.519 | 0.629 | melting point: 130 to 131 °C; PDI ([3]; 2.5 μM in PBS): 0.1650; mean size (hydrodynamic diameter) ([3]; 3.75 μM in PBS from DMSO stock): 58.55 nm; PDI ([3]; 3.75 μM in PBS): 0.1693; type of aggregates formed [4]: J-type (head-to-tail) aggregates

From paper PMC9369794 (Molecules, 2022)
